From patent US8354430B2, “Monohydrochloride salt of 1-[3-[3-(4-chlorophenyl) propoxy]propyl]-piperidine” (priority 2005, dated 2013)

What was measured:
mice [1] = assay: Scopolamine-induced learning deficit, two-trial object recognition; assay type: in vivo, mouse; details: i.p., scopolamine 0.3 mg/kg i.p.
Procedure: Lett., 1994, 170, 117-120; Bartolini et al., Biochem. Nehav., 1996, 53, 277-283]. Methods: Mice were allowed to explore a box for 30 min in the presence of two objects. The day after, mice were submitted to two trials spaced by an interval of 60 min. During the first trial (T1), mice were placed in the box containing the two identical objects and the time required by each animal to complete 20 sec of object exploration was determined. Exploration was considered to be directing the nose at a distance closer than 2 cm to the object and/or touching the object. For the second trial (T2), one of the objects presented in the first trial was replaced by and unknown novel object. Mice were placed in the box for 5 min and exploration of each object together with motor activity was determined. The following parameters were measured.

mice [2] = assay: Electroshock in mice (maximal electroshock seizure model); assay type: in vivo, mouse; details: 100 mg/kg, p.o.; test 60 min after dosing
mice [3] = assay: Sleep-wake cycle study in mice (EEG/EMG); assay type: in vivo, mouse
Procedure: (§1) Animals were chronically implanted with cortical and muscle electrodes to record EEG and EMG respectively, to allow monitoring their sleep-wake cycle. After recovery from surgery, animals were housed individually in a sound-proof recorded room maintaining at appropriate ambient temperature on a 12 h light/dark cycle. Polygraphic recordings were performed during 4 days to collect reference qualitative and quantitative data of sleep-wake control in each individual. Then, pharmacological evaluation was performed over 24 h sessions and analyzed by successive 30 sec epochs. Wakefulness and sleep states were identified as previously described for cats [Petitjean et al., Brain Res., 1975, 88: 439-53] and mice [Valatx and Bugat, Brain Res., 1974, 69: 315-30].
Polygraphic recordings were started 15 days after surgery (5 days recovery plus 10 days acclimation to the recording wires). Sleep-wake recording criteria included wakefulness (W), slow wave sleep (SWS) and paradoxical sleep (PS). Spectral analysis of EEG was performed by Fast-Fourier Transform in the 0.8-2.5 Hz, 8-15 Hz and 30-60 Hz frequency bands.

Human H1R = Human H1R (Homo sapiens, UniProt P35367); assay: Specific [3H]mepyramine binding at recombinant human H1 receptors expressed in HEK293 cells; details: read-out: Ki or IC50, Human H1R
Chain of Human H1R (P35367 whole entry): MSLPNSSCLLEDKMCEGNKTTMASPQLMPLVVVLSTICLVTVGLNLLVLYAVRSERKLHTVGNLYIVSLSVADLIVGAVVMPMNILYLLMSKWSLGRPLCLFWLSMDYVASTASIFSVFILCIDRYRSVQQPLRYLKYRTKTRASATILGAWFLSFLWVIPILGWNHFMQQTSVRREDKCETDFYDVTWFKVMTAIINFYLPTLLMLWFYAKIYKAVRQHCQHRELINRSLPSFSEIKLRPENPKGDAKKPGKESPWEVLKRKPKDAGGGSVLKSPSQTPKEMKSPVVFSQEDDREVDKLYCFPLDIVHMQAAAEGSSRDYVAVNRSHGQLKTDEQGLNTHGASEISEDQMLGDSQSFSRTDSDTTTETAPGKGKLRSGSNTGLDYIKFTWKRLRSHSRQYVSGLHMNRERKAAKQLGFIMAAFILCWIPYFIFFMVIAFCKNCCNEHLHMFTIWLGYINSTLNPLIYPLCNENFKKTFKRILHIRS

human H3R = human H3R (Homo sapiens, UniProt Q9Y5N1); assay: [35S]GTPγS specific binding to membranes of CHO cells expressing the human H3R; assay type: biochemical; parameters: expressed in transfected cells; host or cells: CHO cells
Chain of human H3R (Q9Y5N1 whole entry): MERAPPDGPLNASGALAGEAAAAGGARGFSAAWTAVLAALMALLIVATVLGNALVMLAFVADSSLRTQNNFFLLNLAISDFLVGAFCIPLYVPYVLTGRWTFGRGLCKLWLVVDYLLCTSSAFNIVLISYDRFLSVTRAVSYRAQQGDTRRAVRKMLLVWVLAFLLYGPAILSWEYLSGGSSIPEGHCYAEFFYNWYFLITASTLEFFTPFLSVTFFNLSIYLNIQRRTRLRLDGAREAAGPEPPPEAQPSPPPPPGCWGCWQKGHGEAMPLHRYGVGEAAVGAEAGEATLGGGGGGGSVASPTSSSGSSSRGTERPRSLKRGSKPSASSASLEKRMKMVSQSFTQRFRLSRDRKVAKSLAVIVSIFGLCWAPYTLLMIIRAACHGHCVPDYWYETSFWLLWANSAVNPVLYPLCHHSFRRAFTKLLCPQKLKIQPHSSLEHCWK

[4] = 13-week repeat oral dose study in monkeys; details: monkey, in vivo
Excerpt: This dose was defined as the NOAEL in monkeys.

[5] = Stability to oxidation conditions (melting points under nitrogen and oxygen atmosphere); assay type: physicochemical
Procedure: Melting points of the above salts were also determined under nitrogen and oxygen atmosphere, in order to verify their stability to oxidation conditions.

cats = assay: Sleep-wake cycle study in cats (EEG/EMG); assay type: in vivo, cat
Procedure: as §1, with “[[…]” for “[Valatx”, “315-30]. Polygraphic recordings were started 7 days after surgery. Sleep-wake recording criteria included wakefulness (W), light slow wave sleep (SWS1), deep […]2) and paradoxical sleep (PS). Spectral analysis of EEG was performed by Fast-Fourier Transform in the frequency bands 0.8-2.5 Hz ([delta] slow waves), 8-15 Hz (spindles) and 20-45 Hz ([beta] and [gamma] rapid waves).” for “315-30].”

GAERS rats = assay: Absence epilepsy in GAERS rat; assay type: in vivo
Excerpt: A strain of Wistar rats with spontaneously generalized non convulsive seizures (absence seizures) has been developed in Strasbourg (Genetic Absence Epilepsy Rats of Strasbourg or GAERS). Seizures are characterized by bilateral and synchronous spike-and-wave discharges (7-9 Hz) on EEG, concomitant with behavioral arrests. These discharges generally last about 20 sec and occur spontaneously every minute when the animals are in a state of quiet wakefulness. Pharmacological reactivity of this model is similar to human absence-epilepsy (e.g., valproate and ethosuccimide are protective). After a recovery period, implanted rats (cortical and hippocampal EEG electrodes) were recorded over a 20 min reference period. […] Rats received the alternative treatment one week later. Cumulated duration of absence-seizures was measured by 20 min periods during the two sessions. Fast Fourier transform analysis of EEG recording allowed detection of any rhythm change during both ictal and inter-ictal periods (background activity).

Mouse Brain native H3R = molecular target: T1, Mouse Brain native H3R (Mus musculus, UniProt P58406); assay: Histamine H3 receptor binding, mouse brain cortex membranes
T1 construct: was performed on mouse brain cortex membranes; from tissue; host or cells: mouse brain cortex membranes
T1 sequence (P58406 whole entry): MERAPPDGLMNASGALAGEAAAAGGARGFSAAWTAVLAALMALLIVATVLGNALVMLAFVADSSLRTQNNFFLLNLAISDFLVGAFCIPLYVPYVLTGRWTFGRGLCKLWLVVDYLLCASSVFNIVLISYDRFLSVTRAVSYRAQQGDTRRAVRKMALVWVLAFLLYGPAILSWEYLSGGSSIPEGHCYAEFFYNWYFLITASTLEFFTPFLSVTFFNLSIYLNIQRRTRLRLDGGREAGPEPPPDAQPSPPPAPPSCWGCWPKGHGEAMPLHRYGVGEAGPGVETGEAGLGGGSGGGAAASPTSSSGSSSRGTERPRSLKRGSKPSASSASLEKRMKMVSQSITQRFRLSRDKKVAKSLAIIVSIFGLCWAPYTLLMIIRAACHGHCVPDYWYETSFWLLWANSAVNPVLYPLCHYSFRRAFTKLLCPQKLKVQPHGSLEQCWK

Structure (SMILES): Cl.Clc1ccc(CCCOCCCN2CCCCC2)cc1 [1-[3-[3-(4-chlorophenyl)propoxy]propyl]-piperidine monohydrochloride]
- reversal of scopolamine-induced amnesia (mice [1]; 5 mg/kg): a reversal trend appeared without being significant
- reversal of scopolamine-induced amnesia (mice [1]; 15 mg/kg): significantly (p=0.0056) reversed
- protection in the maximal electroshock seizure model (mice [2]): complete protection
- increase in W duration (mice [3]; 10 mg/kg oral): 29%
- increase in W duration (mice [3]; 20 mg/kg oral): 69%
- behavioral change in treated mice (mice [3]; oral): No behavioral change
- awakening (W) at the expense of SWS and PS (mice [3]; oral, 2.5, 5, 10 or 20 mg/kg): dose-dependent increase in awakening
- Ki (Human H1R): 1140 nM
- decrease in [35S]GTPγS specific binding (human H3R; 10 nM, receptor level 1000-1100 fmol/mg protein): 22%
- maximal decrease of specific binding of [35S]GTPγS (human H3R; receptor level 410 fmol/mg protein): 25%
- NOAEL at 13 weeks [4]: 5 mg/kg/day
- Melting point, N2 atmosphere (stability to oxidation conditions) ([5]; N2 atmosphere): 117.68 °C
- Melting point, O2 atmosphere (stability to oxidation conditions) ([5]; O2 atmosphere): 117.54 °C
- stability to oxidation conditions ([5]; melting points under nitrogen vs oxygen atmosphere): better profile of stability to oxidation conditions than other salts
- time animals almost permanently wakeful (cats; 10 mg/kg oral): 6 to 12 h
- increase in W duration (cats; 10 mg/kg oral, 6 h recording period): 79%
- animal behavior after treatment (cats; oral): No major change in the animal behavior
- awakening (W) at the expense of SWS and PS (cats; oral, 5 or 10 mg/kg): dose-dependent increase in awakening
- reduction of cumulated duration of spike-and-wave discharges vs. saline (GAERS rats; 5 mg/kg, i.p.): 25%
- reduction of cumulated duration of spike-and-wave discharges vs. saline (GAERS rats; 20 mg/kg, i.p.): 77%
- number and cumulated durations of spike and wave discharges (GAERS rats; 20 mg/kg, i.p., 20, 40 and 60 min after administration): significantly decreased
- EEG background activity (spectral analysis of inter-ictal periods) (GAERS rats; epilepsy models): not associated with significant change in EEG background activity
- Ki (Mouse Brain native H3R; radioligand [3H](R)α-MeHA): 5.7 ± 0.2 nM
- Ki (Mouse Brain native H3R; radioligand [125I]iodoproxyfan): 14 ± 0.1 nM
